From ChEMBL document CHEMBL4732068, “The discovery of novel antitrypanosomal 4-phenyl-6-(pyridin-3-yl)pyrimidines” (Eur J Med Chem, 2021)
Active and inactive are the calls of the source. The rule behind the calls is not given here.

Columns and labels:
[1] = biological target: Histone deacetylase 3 (Homo sapiens) (UniProt O15379); assay: Inhibition of recombinant human HDAC3 by fluorescence based microplate reader analysis
Cytochrome P450 1A2 = biological target: T1, Cytochrome P450 1A2 (Homo sapiens, UniProt P05177); assay: Inhibition of CYP1A2 in human liver microsomes by luminescence based P450-[…] assay; type: ADME
T1 sequence (P05177 whole entry): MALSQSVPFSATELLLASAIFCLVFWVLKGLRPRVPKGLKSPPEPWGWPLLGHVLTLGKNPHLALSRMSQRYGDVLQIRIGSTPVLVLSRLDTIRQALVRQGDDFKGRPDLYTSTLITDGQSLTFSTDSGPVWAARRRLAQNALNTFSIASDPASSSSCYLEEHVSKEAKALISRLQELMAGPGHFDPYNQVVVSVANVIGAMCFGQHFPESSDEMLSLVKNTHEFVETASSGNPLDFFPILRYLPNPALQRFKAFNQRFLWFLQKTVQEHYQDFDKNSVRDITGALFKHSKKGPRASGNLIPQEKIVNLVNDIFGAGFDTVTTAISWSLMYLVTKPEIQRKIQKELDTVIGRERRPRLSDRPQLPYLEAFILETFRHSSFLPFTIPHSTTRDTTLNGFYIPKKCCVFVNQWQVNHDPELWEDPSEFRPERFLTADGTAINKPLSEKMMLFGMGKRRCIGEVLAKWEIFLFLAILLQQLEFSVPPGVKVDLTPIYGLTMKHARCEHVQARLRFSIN

Cytochrome P450 2C19 = Cytochrome P450 2C19 (Homo sapiens, UniProt P33261); assay: Inhibition of CYP2C19 in human liver microsomes by luminescence based P450-[…] assay; type: ADME
Cytochrome P450 2C19, sequence (P33261 whole entry): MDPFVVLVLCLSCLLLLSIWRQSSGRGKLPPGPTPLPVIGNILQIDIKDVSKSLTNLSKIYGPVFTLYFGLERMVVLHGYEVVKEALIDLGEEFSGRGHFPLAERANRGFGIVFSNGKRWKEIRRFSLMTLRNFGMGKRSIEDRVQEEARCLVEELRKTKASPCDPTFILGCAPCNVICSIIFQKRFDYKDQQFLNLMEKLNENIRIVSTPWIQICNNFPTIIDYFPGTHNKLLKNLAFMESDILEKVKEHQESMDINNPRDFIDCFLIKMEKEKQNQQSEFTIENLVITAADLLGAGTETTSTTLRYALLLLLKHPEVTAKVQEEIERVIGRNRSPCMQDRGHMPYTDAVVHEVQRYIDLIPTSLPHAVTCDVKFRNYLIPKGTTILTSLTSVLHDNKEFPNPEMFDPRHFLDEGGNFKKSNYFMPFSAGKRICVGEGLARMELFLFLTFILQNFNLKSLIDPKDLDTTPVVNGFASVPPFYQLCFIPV

[2] = biological target: T2, Protein deacetylase HDAC6 (Homo sapiens) (UniProt Q9UBN7); assay: Inhibition of recombinant human HDAC6 by fluorescence based microplate reader analysis
T2 sequence (whole entry): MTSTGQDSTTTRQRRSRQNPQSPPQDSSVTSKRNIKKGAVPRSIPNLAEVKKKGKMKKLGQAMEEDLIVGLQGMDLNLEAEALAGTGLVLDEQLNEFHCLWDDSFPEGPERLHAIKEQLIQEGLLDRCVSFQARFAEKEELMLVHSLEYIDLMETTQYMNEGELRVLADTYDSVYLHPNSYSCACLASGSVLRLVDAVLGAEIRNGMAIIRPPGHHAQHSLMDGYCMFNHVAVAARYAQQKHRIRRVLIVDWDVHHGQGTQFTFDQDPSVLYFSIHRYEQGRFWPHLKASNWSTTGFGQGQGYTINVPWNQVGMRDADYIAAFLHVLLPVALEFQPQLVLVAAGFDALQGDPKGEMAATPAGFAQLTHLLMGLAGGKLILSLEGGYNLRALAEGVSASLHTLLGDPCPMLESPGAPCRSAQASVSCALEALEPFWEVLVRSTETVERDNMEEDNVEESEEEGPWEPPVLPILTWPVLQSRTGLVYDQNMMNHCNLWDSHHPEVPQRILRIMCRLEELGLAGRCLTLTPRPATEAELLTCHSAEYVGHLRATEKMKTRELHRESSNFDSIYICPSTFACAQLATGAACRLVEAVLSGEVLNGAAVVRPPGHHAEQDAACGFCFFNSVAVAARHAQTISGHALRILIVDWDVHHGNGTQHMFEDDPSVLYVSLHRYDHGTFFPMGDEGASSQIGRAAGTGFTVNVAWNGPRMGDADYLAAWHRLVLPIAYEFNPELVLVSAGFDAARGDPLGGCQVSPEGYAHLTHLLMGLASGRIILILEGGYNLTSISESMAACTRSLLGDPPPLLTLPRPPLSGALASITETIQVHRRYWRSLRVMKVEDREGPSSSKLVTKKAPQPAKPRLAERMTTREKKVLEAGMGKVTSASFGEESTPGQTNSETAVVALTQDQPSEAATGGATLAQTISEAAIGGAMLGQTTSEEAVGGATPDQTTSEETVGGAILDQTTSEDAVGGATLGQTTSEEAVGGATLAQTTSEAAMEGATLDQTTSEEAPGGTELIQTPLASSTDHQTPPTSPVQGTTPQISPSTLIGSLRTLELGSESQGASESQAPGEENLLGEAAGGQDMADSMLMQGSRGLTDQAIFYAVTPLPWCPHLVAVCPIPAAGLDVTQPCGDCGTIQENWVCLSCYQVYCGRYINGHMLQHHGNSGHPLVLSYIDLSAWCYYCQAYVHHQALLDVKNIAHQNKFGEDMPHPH

[3] = biological target: Histone deacetylase 1 (Homo sapiens) (UniProt Q13547); assay: Inhibition of recombinant human HDAC1 by fluorescence based microplate reader analysis
Histone deacetylase 1 (Homo sapiens), sequence (Q13547 whole entry): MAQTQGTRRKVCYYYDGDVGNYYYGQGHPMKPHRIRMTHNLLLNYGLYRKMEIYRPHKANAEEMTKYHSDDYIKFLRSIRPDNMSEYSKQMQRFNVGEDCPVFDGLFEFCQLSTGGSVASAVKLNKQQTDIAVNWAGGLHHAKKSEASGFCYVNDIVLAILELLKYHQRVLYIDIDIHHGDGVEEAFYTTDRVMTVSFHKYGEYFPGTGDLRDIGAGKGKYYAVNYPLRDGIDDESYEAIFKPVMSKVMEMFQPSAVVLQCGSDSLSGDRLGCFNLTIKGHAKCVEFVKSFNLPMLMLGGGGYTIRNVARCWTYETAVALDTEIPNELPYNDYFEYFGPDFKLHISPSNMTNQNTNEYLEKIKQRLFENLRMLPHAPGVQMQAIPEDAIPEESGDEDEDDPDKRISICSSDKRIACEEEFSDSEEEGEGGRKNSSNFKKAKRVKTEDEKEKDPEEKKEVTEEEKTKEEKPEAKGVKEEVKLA

Cytochrome P450 2C9 = Cytochrome P450 2C9 (Homo sapiens, UniProt P11712); assay: Inhibition of CYP2C9 in human liver microsomes by luminescence based P450-[…] assay
Cytochrome P450 2C9, sequence (P11712 whole entry): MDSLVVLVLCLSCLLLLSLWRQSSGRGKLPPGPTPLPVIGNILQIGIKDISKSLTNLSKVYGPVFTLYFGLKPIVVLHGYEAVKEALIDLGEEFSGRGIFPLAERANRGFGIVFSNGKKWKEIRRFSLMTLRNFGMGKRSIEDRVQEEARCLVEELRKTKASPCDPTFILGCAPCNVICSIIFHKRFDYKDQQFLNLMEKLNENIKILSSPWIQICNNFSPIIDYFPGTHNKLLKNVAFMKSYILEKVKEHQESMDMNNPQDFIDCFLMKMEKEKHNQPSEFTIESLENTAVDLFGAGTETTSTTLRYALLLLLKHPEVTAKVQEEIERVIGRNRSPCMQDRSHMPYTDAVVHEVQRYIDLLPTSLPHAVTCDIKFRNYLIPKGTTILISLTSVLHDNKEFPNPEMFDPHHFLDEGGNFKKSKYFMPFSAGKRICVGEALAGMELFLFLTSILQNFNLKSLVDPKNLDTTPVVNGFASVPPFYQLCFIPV

Histone deacetylase 3 (Homo sapiens), sequence (O15379 whole entry): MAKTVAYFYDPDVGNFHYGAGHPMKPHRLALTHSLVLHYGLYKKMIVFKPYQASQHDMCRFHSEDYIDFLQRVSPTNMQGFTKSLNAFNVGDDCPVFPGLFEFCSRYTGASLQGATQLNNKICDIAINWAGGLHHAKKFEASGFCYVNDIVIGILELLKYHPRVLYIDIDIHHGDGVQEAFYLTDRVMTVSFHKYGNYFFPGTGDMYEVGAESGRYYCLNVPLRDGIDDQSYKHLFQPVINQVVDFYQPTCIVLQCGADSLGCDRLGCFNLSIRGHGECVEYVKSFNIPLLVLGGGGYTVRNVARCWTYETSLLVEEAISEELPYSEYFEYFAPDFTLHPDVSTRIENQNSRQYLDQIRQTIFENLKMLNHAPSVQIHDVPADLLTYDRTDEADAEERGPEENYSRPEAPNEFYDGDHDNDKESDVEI

inhibition [1]: inactive
inhibition (INH) (Cytochrome P450 1A2): Active
inhibition (INH) (Cytochrome P450 2C19): Active
inhibition [2]: inactive
inhibition [3]: inactive
inhibition (INH) (Cytochrome P450 2C9): Active
Structure (SMILES): COc1ccccc1-c1cc(-c2cccnc2)nc(N)n1
